Values joined by “and” are separate entries in the source; they are usually repeats but may differ in a detail not shown here. Equal entries are not always repeated.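 Exposure lasted 48 hours, with cells grown in 96-well plates and compounds tested at five concentrations. GI50 is the concentration that inhibits growth by half. Definition used: TGI = concentration required for complete inhibition of growth.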
Assays:
Experiment in all cases: NCI-60 cell line screen, 48 h
MDA-MB-231 breast = tested on: MDA-MB-231 breast
PC-3 prostate = tested on: PC-3 prostate
NCI/ADR-RES ovarian = tested on: NCI/ADR-RES ovarian
MDA-MB-435 = tested on: MDA-MB-435
HS 578T breast = tested on: HS 578T breast
BT-549 breast = tested on: BT-549 breast
M19-MEL melanoma = tested on: M19-MEL melanoma
LXFL 529 NSCLC = tested on: LXFL 529 NSCLC
DMS 114 small cell lung = tested on: DMS 114 small cell lung

Compound	GI50 (MDA-MB-231 breast) [µM]	TGI (MDA-MB-231 breast)	GI50 (PC-3 prostate) [µM]	TGI (PC-3 prostate)	GI50 (NCI/ADR-RES ovarian) [µM]	TGI (NCI/ADR-RES ovarian)	GI50 (MDA-MB-435) [µM]	TGI (MDA-MB-435)	GI50 (HS 578T breast) [µM]	TGI (HS 578T breast)	GI50 (BT-549 breast) [µM]	TGI (BT-549 breast)	TGI (M19-MEL melanoma) [µM]	TGI (LXFL 529 NSCLC) [µM]	GI50 (DMS 114 small cell lung) [µM]	TGI (DMS 114 small cell lung) [µM]	GI50 (M19-MEL melanoma) [µM]	GI50 (LXFL 529 NSCLC) [µM]
O=[N+]([O-])c1cccc([I+]c2ccccc2)c1	14.8	33.6 µM	7.78	26.1 µM	47.9	> 100 µM	11.6	29.2 µM	10.1	68.2 µM	10.5	23.1 µM						
COc1c(OC)c(OC)c(-c2cc(=O)c3c(OC)c(OC)c(OC)c(OC)c3o2)c(OC)c1OC		> 100 µM				78.9 µM		> 100 µM		> 100 µM		> 100 µM						
O=c1[nH]c(-c2ccc([N+](=O)[O-])cc2)nc2ccc(Cl)cc12													> 100	> 100				
C=C(C)C1CCC2(C(=O)O)CCC3(C)C(CCC4C5(C)CCC(O)C(C)(C)C5CCC43C)C12 (stereo not drawn)		10.7 µM		23.8 µM		31.5 µM		48.4 µM		55.7 µM		10.9 µM						
COc1cc(/C=C2\CC3C4CCC5=CC(=O)CC[C@]5(C)C4CC[C@]3(C)C2=O)ccc1OCCN1CCCCC1 (stereo partly drawn)	1.85	5.03 µM	2.33	12.8 µM	4.62	> 100 µM	1.97	4.28 µM	4.79	23 µM	6.19	23.3 µM						
C1C[S][Ge]2([S]CCS1)[S]CCSCC[S]2													> 100	> 100	> 100	> 100	> 100	> 100
O=C(O)C1C2CCC(O2)C1C(=O)NCc1cccnc1 (stereo not drawn)		> 100 µM		> 100 µM		> 100 µM		> 100 µM		> 100 µM		> 100 µM						
C=C(C)[C@@H]1CC[C@]2(C(=O)N3CCN(C)CC3)CC[C@]3(C)[C@H](CC[C@@H]4[C@@]5(C)CC[C@H](O)C(C)(C)[C@@H]5CC[C@]43C)[C@@H]12	1.88	3.57 µM	1.74	3.48 µM			1.8	3.5 µM	1.94	4.68 µM	1.74	3.49 µM						
NCCCCCCCCCn1c2c(c3ccccc3c1=O)C(=O)c1ccccc1-2	1.13	11.1 µM	10.6	29.2 µM	9.47	22.4 µM	9.52	19.1 µM	10.3	21.9 µM	9.26	18.9 µM						
Cc1cc(N(CCC#N)CCC#N)ccc1CC1N=C(c2ccccc2)OC1=O (stereo not drawn)													> 100	> 100		> 100		
C=CNC(=S)n1nc(-c2ccccc2NC(=O)C(F)(F)F)c(=O)n(C(=S)NC=C)c1=S													> 100	> 100		28.9		
O=C(Nc1nc(-c2ccccc2Cl)cs1)c1cc(-c2ccc(Cl)cc2)nc2ccc(Cl)cc12	2.27	15.2 µM	3.25	34.5 µM	1.73	> 100 µM	1.71	4.72 µM	2.67	25.7 µM	2.44	6.99 µM						
O=[P+](O)c1cccnc1													> 100	> 100		> 100		
COc1cccc(/C=C2\CCc3ccccc3C2=O)c1	22.8	87.6 µM	16.3	65.1 µM	10.1	48.8 µM	4.15	20.1 µM	3.33	17.9 µM	20	47.6 µM						
CSc1nc(SC)c2c(C)cn(C3OC(C)C(O)C(O)C3O)c2n1 (stereo not drawn)		> 100 µM		> 100 µM		> 100 µM		> 100 µM		> 100 µM		> 100 µM						
COc1ccc(/C=C/C(=O)c2ccccc2)cc1OC		38.1 µM and 52.6 µM	23.2	25.1 µM and 82 µM	8.33	> 100 µM and 93.1 µM	6.89	14.6 µM and 25.2 µM	42.3	65 µM and > 100 µM		37.5 µM and 35.3 µM						
O=C(O)c1c[nH]c2c(ccc3[nH]cc(C(=O)O)c(=O)c32)c1=O		> 100 µM		> 100 µM		> 100 µM		> 100 µM		> 100 µM		> 100 µM						
NC(CSC1(c2ccc(Cl)cc2)c2ccccc2-c2ccccc21)C(=O)O (stereo not drawn)		35.7 µM		43.5 µM		> 100 µM		35.3 µM		45.6 µM		34.6 µM						
O=C1Nc2c(ccc(Cl)c2Cl)/C1=C\c1cc(C(F)(F)F)cc(C(F)(F)F)c1	3.74	10.8 µM	1.1	4.51 µM	6.38	14.8 µM	1.99	7.64 µM	1.21	3.18 µM	6.02	12.5 µM						
O=C(CC(=O)N1N=C(c2ccccc2)C(N=Nc2ccccc2Cl)C1=O)Nc1ccccc1Cl (stereo not drawn)													> 100	> 100		> 100		
NNc1ncnc2cccc(Cl)c12		> 100 µM		> 100 µM		> 100 µM				> 100 µM		> 100 µM						
CS(=O)(=O)c1ccc(-c2cnc(NCc3ccco3)n3cnnc23)cc1	41.4	> 100 µM	57.8	> 100 µM	> 100	> 100 µM	54.5	> 100 µM	> 100	> 100 µM	> 100	> 100 µM						
ClCc1ccc(-c2ccc(Cn3cnc4c(Cl)ncnc43)cc2)cc1	1.77	3.73 µM	2.8	9.92 µM	2.16	4.7 µM			3.06	> 100 µM	3.11	> 100 µM						
CC/C(=C(/CC)c1ccc(O)cc1)c1ccc(O)cc1	10	25.2 µM	5.75	50.9 µM	3.09	20.2 µM	1.87	5.14 µM	4.17	32 µM	6.16	21.5 µM						
CC(C)(N)C(=O)N[C@@H]1C(=O)N2[C@@H]1SC(C)(C)[C@@H]2C(=O)O		> 100 µM		> 100 µM		> 100 µM		> 100 µM		> 100 µM		> 100 µM						
Nc1nc(-c2ccc3ccccc3c2)cc(-c2cc(-c3ccc4ccccc4c3)nc(N)n2)n1		> 100 µM		> 100 µM		> 100 µM		> 100 µM		> 100 µM		> 100 µM						
